Reference: paper PMC3723878 (PLoS ONE, 2013)
Numbering of substitutions follows the chain as printed.

Legend:
Assay in all cases: Saturation binding of ^125I-HEAT
[1] = molecular target: T1, human α1A-AR F193A variant (Homo sapiens, UniProt P35348, F193A)
T1 construct: expressed in transfected cells; host or cells: COS-7, transient (calcium phosphate)
T1 sequence (P35348 1-466 F193A): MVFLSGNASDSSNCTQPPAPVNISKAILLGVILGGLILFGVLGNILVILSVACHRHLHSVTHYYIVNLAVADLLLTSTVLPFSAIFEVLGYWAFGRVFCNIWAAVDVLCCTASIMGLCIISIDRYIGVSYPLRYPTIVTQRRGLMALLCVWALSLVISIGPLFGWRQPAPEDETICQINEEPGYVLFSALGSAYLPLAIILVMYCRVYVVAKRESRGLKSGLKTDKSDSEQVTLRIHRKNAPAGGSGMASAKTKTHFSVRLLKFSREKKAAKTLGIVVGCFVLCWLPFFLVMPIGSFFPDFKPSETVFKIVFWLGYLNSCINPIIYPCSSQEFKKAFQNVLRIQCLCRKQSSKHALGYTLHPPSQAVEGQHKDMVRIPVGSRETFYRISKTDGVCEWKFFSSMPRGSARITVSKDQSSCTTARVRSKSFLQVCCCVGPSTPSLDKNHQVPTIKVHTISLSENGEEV

[2] = molecular target: T2, human α1A-AR D106A variant (Homo sapiens, UniProt P35348, D106A)
T2 construct: expressed in transfected cells; host or cells: COS-7, transient (calcium phosphate)
T2 sequence (P35348 1-466 D106A): T1 sequence (P35348 1-466 F193A) with D106A, A193F

[3] = molecular target: T3, human α1A-AR S188A/S192A (SS-AA) variant (Homo sapiens, UniProt P35348, S188A/S192A)
T3 construct: expressed in transfected cells; host or cells: COS-7, transient (calcium phosphate)
T3 sequence (P35348 1-466 S188A/S192A): T1 sequence (P35348 1-466 F193A) with S188A, S192A, A193F

O=C1c2ccccc2CCC1CNCCc1ccc(O)c([125I])c1 (centres unmarked) [125I-HEAT]
^125I-HEAT Ratio (loss of affinity relative to WT) [1]: 2.8 | ^125I-HEAT Ratio (loss of affinity relative to WT) ([2]; D106A): 1.7 | ^125I-HEAT pKd ([2]; D106A (3.32), saturation binding, n = 3–6): 9.82±0.11 | ^125I-HEAT Ratio (loss of affinity relative to WT) ([3]; SS-AA): 0.78 | ^125I-HEAT pKd ([3]; SS-AA (5.42–5.46), saturation binding, n = 3–6): 10.15±0.01
